# From publication PMC6539525, “Design, Synthesis, and Mechanism of Dihydroartemisinin–Coumarin Hybrids as Potential Anti-Neuroinflammatory Agents” (Molecules, 2019)
# Read-outs that look alike come from different tables or passages of the source.
# Experiments:
# [1] = system: NO release of LPS-induced microglial N9 cells; test: Inhibition of NO release in LPS-induced N9 cells (Griess); format: cell-based, murine; conditions: Mus musculus, 1 μg/mL LPS for 48 h, NO level in medium
# Procedure: (§1) The anti-neuroinflammatory activity of DCH was evaluated and then the representative compounds were selected for the further study. […] In addition, in order to exclude the death influence, MTT-IC20 of all the compounds were measured. […] The exact reason was still unclear, but we supposed that it might be related to the homeostasis of cells. The tumor cells actually were always in hypoxia condition, in which DCH could promote the cytotoxic activity against tumor cells. In brief, DCH could reduce the release of NO caused by LPS-induced microglial cells.
# (§2) N9 cells, which were in the logarithmic phase, were incubated for 24 h by adherent culture. Subsequently, the medium was changed to new one without serum. The cells were treated with different concentration of tested compounds. After specific time in the LPS condition, the supernatants were collected and analyzed.
# The nitrite levels in medium were determined by Griess reaction. The absorbance was measured at 540 nm using a microplate reader.
# MDA-MB-231 cells = test: MTT cytotoxicity in MDA-MB-231 cells; format: cell-based; conditions: Homo sapiens
# Procedure: (§3) As the anti-neuroinflammatory agents for cancer patients, all newly synthesized compounds were evaluated in vitro for antitumor activity against human breast cancer cell line MDA-MB-231, colorectal cancer cells HT-29 and HCT-116, and lung cancer cell line A549 by using the standard MTT method, respectively. Doxorubicin (DOX) and DHA were used as the reference standard. Additionally, owing to the rapid proliferation, the tumor cells actually was always in hypoxia condition. Therefore, the in vitro cytotoxicity was evaluated in two different conditions (hypoxia and normoxia).
# (§4) After recovery, the cells were cultured in 96-well plates for 24 h at 37 °C in a humidified atmosphere with 95% air and 5% CO2. After treated with different tested compounds, the hypoxia groups were placed in a sealed hypoxia incubator chamber (Stemcell Technologies, Inc., Vancouver, BC, Canada) filled with 5% CO2 and 95% N2 for 24 h, and then transferred to the incubator chamber filled with air for 72 h. On the contrary, the normoxia groups were cultured under air condition for 96h.
# (§5) Cancer cells HT-29 (Human Colorectal Adenocarcinoma cell line), MDA-MB-231 (Human Breast Cancer cell line), HCT-116 (Human Colorectal Carcinoma cell line), and A549 (Human Lung Adenocarcinomic cell line) were from ATCC.
# (§6) When the adherent cells reached 80% confluence, the culture medium was discarded. The cells were digested by trypsin and collected after centrifugation. The fresh culture medium was gently blown into it to form single-cell suspension. Cell suspension will be diluted to 1.5–3 × 10^4 cells/mL. Each hole of 96-well plates was added 100 μL cell suspension and incubated for 24 h (5% CO2; 37 °C). Then the holes were added different concentrations of tested compounds. The early screening concentration is set to 100 μM, 50 μM, 25 μM, 12.5 μM, and 6.25 μM. Three replicates were made for each concentration of the tested compounds. After the cells were grown for 96h, 20 μL MTT (5 mg/mL) was added to each well and incubated for 4 h. The medium was discarded and each well was added 100 μL DMSO to dissolve the formazan blue. Absorbance was measured at 570 nm with a microplate reader (Synergy-HT, BioTek Instruments, Winooski, VT, USA).
# (§7) Hypoxia condition: The cells were treated with different concentration of tested compounds, placed in hypoxia chamber (Catalog Number 27310, Stemcell Technologies, Inc., Vancouver, BC, Canada), and incubated for 24 h ([…]; 37 °C). Then the cells were placed in normoxia condition (5% CO2; 37 °C) and incubated for 72 h.
# [2] = MTT cytotoxicity in N9 cells; format: cell-based, murine; conditions: mouse, N9 microglial cells, cytotoxic activity
# Procedure: as §1, §6, §2
# HT-29 cells = test: MTT cytotoxicity in HT-29 cells; format: cell-based, Human; conditions: Homo sapiens, MTT
# Procedure: as §3
# as §4, with “On the contrary, the normoxia groups were cultured under air condition for 96h.” left out
# as §5
# as §6, with “After the cells were grown for 96h, 20 μL MTT (5 mg/mL) was added to each well and incubated for 4 h.” left out, “USA). […]” for “USA).”
# HCT-116 cells = test: MTT cytotoxicity in HCT-116 cells; format: cell-based; conditions: Homo sapiens
# Procedure: as §3, §4, §5, §6, §7
# A549 cells = test: MTT cytotoxicity in A549 cells; format: cell-based; conditions: Homo sapiens
# Procedure: as §3, §4, §5, §6, §7
# [3] = MDA-MB-231, hypoxia 24 h then normoxia 72 h, read-out: IC50 MDA-MB-231 Hypoxia
# [4] = MDA-MB-231, normoxia 96 h, read-out: IC50 MDA-MB-231 Normoxia
# [5] = HT-29, hypoxia 24 h then normoxia 72 h, read-out: IC50 HT-29 Hypoxia
# [6] = HT-29, normoxia 96 h, read-out: IC50 HT-29 Normoxia
# [7] = HCT-116, hypoxia 24 h then normoxia 72 h, read-out: IC50 HCT-116 Hypoxia
# [8] = HCT-116, normoxia 96 h, read-out: IC50 HCT-116 Normoxia
# [9] = A549, hypoxia 24 h then normoxia 72 h, read-out: IC50 A549 Hypoxia
# [10] = A549, normoxia 96 h, read-out: IC50 A549 Normoxia
SMILES,IC50 [1] [µM],IC50 (MDA-MB-231 cells; [3]) [µM],IC50 (MDA-MB-231 cells; [4]) [µM],IC20 [2] [µM],IC50 (HT-29 cells; [5]) [µM],IC50 (HT-29 cells; [6]) [µM],IC50 (HCT-116 cells; [7]) [µM],IC50 (HCT-116 cells; [8]) [µM],IC50 (A549 cells; [9]) [µM],IC50 (A549 cells; [10]) [µM]
"Cc1ccc2oc(=O)cc(Cn3cc(CO[C@H]4O[C@@H]5O[C@@]6(C)CC[C@H]7[C@H](C)CC[C@@H]([C@H]4C)[C@@]57OO6)nn3)c2c1 [3i, 6-methyl-4-((4-((10S)-dihydroartemisininoxy)methyl-1H-1,2,3-triazol-1-yl)-methyl)-2H-1-chromen-2-one]",0.72,22.8,> 100,> 10,8.57,16.4,> 100,65,62.3,> 100
"COc1cccc2c1C(=O)c1c(O)c3c(c(O)c1C2=O)C[C@@](O)(C(=O)CO)C[C@@H]3O[C@H]1C[C@H](N)[C@H](O)[C@H](C)O1 [DOX, Doxorubicin, reference compound]",–,0.69,1.37,–,< 0.1,0.11,> 2,1.29,> 2,> 2
"C[C@H]1[C@@H](OCc2cn(Cc3cc(=O)oc4cc(O)ccc34)nn2)O[C@@H]2O[C@@]3(C)CC[C@H]4[C@H](C)CC[C@@H]1[C@@]24OO3 [3f, 7-hydroxy-4-((4-((10S)-dihydroartemisininoxy)methyl-1H-1,2,3-triazol-1-yl)-methyl)-2H-1-chromen-2-one]",0.37,63.1,> 100,> 10,15.5,37.8,67.7,> 100,98,> 100
"Cc1ccc2c(Cn3cc(CO[C@H]4O[C@@H]5O[C@@]6(C)CC[C@H]7[C@H](C)CC[C@@H]([C@H]4C)[C@@]57OO6)nn3)cc(=O)oc2c1 [3h, 7-methyl-4-((4-((10S)-dihydroartemisininoxy)methyl-1H-1,2,3-triazol-1-yl)-methyl)-2H-1-chromen-2-one]",> 10,> 100,> 100,> 10,32,> 100,> 100,> 100,> 100,> 100
"CN(C)c1ccc(O)c2c1C[C@H]1C[C@H]3[C@H](N(C)C)C(O)=C(C(N)=O)C(=O)[C@@]3(O)C(O)=C1C2=O [Minocycline, reference compound]",> 10,–,–,> 10,–,–,–,–,–,–
"Cc1cc(C)c2c(Cn3cc(CO[C@H]4O[C@@H]5O[C@@]6(C)CC[C@H]7[C@H](C)CC[C@@H]([C@H]4C)[C@@]57OO6)nn3)cc(=O)oc2c1 [3g, 5,7-dimethyl-4-((4-((10S)-dihydroartemisininoxy)methyl-1H-1,2,3-triazol-1-yl)-methyl)-2H-1-chromen-2-one]",> 10,> 100,> 100,> 10,15.9,23.9,> 100,> 100,> 100,> 100
"C[C@H]1[C@@H](O)O[C@@H]2O[C@@]3(C)CC[C@H]4[C@H](C)CC[C@@H]1[C@@]24OO3 [DHA, Dihydroartemisinin]",1.58,45.9,> 100,> 10,11.7,51.1,25.9,10.3,> 100,> 100

# The next lines start with results.
IC50 [1] [µM],SMILES,IC50 (MDA-MB-231 cells; [3]) [µM],IC50 (MDA-MB-231 cells; [4]) [µM],IC20 [2] [µM],IC50 (HT-29 cells; [5]) [µM],IC50 (HT-29 cells; [6]) [µM],IC50 (HCT-116 cells; [7]) [µM],IC50 (HCT-116 cells; [8]) [µM],IC50 (A549 cells; [9]) [µM],IC50 (A549 cells; [10]) [µM]
1.59,C[C@H]1[C@@H](OCCn2cc(COc3cc(=O)oc4ccccc34)nn2)O[C@@H]2O[C@@]3(C)CC[C@H]4[C@H](C)CC[C@@H]1[C@@]24OO3 [5j],69.4,100,> 10,12.2,30,> 100,77.2,> 100,> 100
2.03,"C[C@H]1[C@@H](OCCc2cn(Cc3cc(=O)oc4cc(O)ccc34)nn2)O[C@@H]2O[C@@]3(C)CC[C@H]4[C@H](C)CC[C@@H]1[C@@]24OO3 [4f, 7-hydroxy-4-((4-(2-((10S)-dihydroartemisininoxy)ethyl)-1H-1,2,3-triazol-1-yl)-methyl)-2H-1-chromen-2-one]",78.8,> 100,> 10,11.3,32.3,> 100,> 100,> 100,> 100
> 10,"Cc1ccc2oc(=O)cc(Cn3cc(CCO[C@H]4O[C@@H]5O[C@@]6(C)CC[C@H]7[C@H](C)CC[C@@H]([C@H]4C)[C@@]57OO6)nn3)c2c1 [4i, 6-methyl-4-((4-(2-((10S)-dihydroartemisininoxy)ethyl)-1H-1,2,3-triazol-1-yl)-methyl)-2H-1-chromen-2-one]",> 100,> 100,> 10,39,> 100,> 100,> 100,> 100,> 100
1.36,"Cc1cc(C)c2c(Cn3cc(CCO[C@H]4O[C@@H]5O[C@@]6(C)CC[C@H]7[C@H](C)CC[C@@H]([C@H]4C)[C@@]57OO6)nn3)cc(=O)oc2c1 [4g, 5,7-dimethyl-4-((4-(2-((10S)-dihydroartemisininoxy)ethyl)-1H-1,2,3-triazol-1-yl)-methyl)-2H-1-chromen-2-one]",22.7,> 100,> 10,9.33,13.8,25.7,34.5,> 100,> 100
5.69,"Cc1ccc2c(Cn3cc(CCO[C@H]4O[C@@H]5O[C@@]6(C)CC[C@H]7[C@H](C)CC[C@@H]([C@H]4C)[C@@]57OO6)nn3)cc(=O)oc2c1 [4h, 7-methyl-4-((4-(2-((10S)-dihydroartemisininoxy)ethyl)-1H-1,2,3-triazol-1-yl)-methyl)-2H-1-chromen-2-one]",> 100,> 100,> 10,56.4,> 100,> 100,> 100,> 100,> 100
